Laboratory results reported in article PMC3012033 (Lipids in Health and Disease, 2010).

Experiments:
B16F10 melanoma cells = assay: Cell cycle analysis by flow cytometry (propidium iodide); assay type: cell-based, mice; settings: 0.8 μM
Description: Cell cycle analysis was determined by flow cytometry at the Federal State University of Paraná. Briefly, after the different treatments, 2 × 10^6 cells were trypsinized, washed three times with PBS, fixed in 70% ethanol, and stained with Propidium Iodide (PI) solution. All analyses were done using a FACScalibur flow cytometer (Becton Dickinson, San Jose, CA). The red fluorescence of PI was collected through a 585/42-nm band -pass filter, and the fluorescence signals were measured in a linear scale of 1024 channels. For each sample, at least 10000 events were acquired and the data were analyzed using an appropriate software (CELLQuest, Becton Dickinson, San Jose, CA).

[1] = Bone marrow and spleen cellularity; assay type: in vivo, C57BL/6J mice
Description: (§1) C57BL/6J mice, weighing about 20 g and 60 days older were used. After the experiments, blood was collected from the axillary plexus. The bone marrow was collected from the femur of the same animals. The spleen cellularities were also analyzed.
The animals were first anesthetized, exsanguinated and sacrificed by cervical dislocation. The bone marrow was obtained by washing the cavity with the culture femoral McCoy's 5A modified (Sigma, Chemical Company, USA) ice cream.
Sleen cells were collected by the same sacrificed animals of hematological procedures. The spleen was transferred to plastic Petri dish with iced culture McCoy's 5A modified (Sigma, Chemical Company, USA) containing 10% EDTA, used to collect the cells. In the Petri dish, the spleen capsule was broken in one of its ends, with the aid of two needles bent into "L", and fixed in syringes. The cells were gently removed from the dish by the dissociation method. The suspension was homogenized in the Petri dish with standard Pasteur pipette to complete cell separation and transferred to conical plastic tube and kept in an ice bath. The cells obtained from the spleen were quantified in a Neubauer chamber hemocytometer after dilution of 1:500 liquid Turk, diluent composed of 1% solution of glacial acetic acid. For morphological evaluation, the slides were performed in cell suspension cellspin cytocentrifuge (Incibras) and subsequently submitted to the staining of May-Grunwald GIENS, modified by Rosenfeld, and peroxidase method modified by Graham Knoll, for identification and quantification of different types cell.

Blood cells evaluation = assay type: in vivo, C57BL/6J mice; settings: mean ± S.E.M., seven animals
Description: as §1
Blood samples were collected twenty days after tumor implant from the axillary plexus of the animals in all experimental groups, which were used to perform blood and reticulocyte count, according to the techniques used in the Laboratory of Experimental Hematology of FCF/USP [14].

B16F10 melanoma = assay: Tumor growth and survival of B16F10 melanoma bearing mice; assay type: in vivo, C57Bl/6J mice
Description: In vivo experiments were conducted in male C57BL/6J mice (18-25 g), housed at 22 ± 2°C under a 12/12 h light/dark cycle with free access to food and water until use. The animals were acclimatized to the laboratory for at least 24 h before testing and were used only once. All animal handling and experimental procedures were conducted with prior approval of the ethics committee on animal use of the University of São Paulo Medical School Hospital Ethics Committee.
To mice experimentations, the simvastatin compressed powders were macerated and watery solutions were made.
All animal's procedures were made in Butantan Institute with supervision of Dr. Durvanei Augusto Maria, in accordance with University of Sao Paulo Medical School Hospital Ethics Committee. Briefly, 5 × 10^4 B16F10 melanoma cells were injected subcutaneously into C57Bl/6J mice. […] Tumors were measured using a caliper and volume was estimated using the formula V = (small diameter)^2 × (large diameter)/¾ πR [13].
Tumor growth data were analyzed by Student's t test, survival rate data were analyzed by Kaplan-Meyer curves and hematological data were analyzed by one-way ANOVA with Tukey posttest using Graph Pad Prism Stat version 4.0 for Windows.

[2] = tested on: B16F10 mice melanoma cell line; assay: B16F10 melanoma cell viability (MTT, Trypan Blue exclusion); assay type: cell-based
Description: B16F10 mice melanoma cell line was generously provided by Dr. Roger Chammas (USP, São Paulo, Brazil). Cells were routinely cultured in RPMI 1640 medium supplemented with 10% fetal bovine serum (FBS) at 37°C in a humidified atmosphere containing 5% CO2.
To dissolve the crystals of Formazan was used dimethylsulfoxide (DMSO). Quantification was obtained by the absorbance reading at a wavelength of 450 nm to 690 nm. Cell viability was also evaluated by the method of Trypan Blue exclusion (Invitrogen, Carlsbad, CA), by direct counting in a hemocytometer.

[3] = mice bearing melanoma treated with same doses
[4] = mice without tumor (Control-Simvastatin), vs control
[5] = melanoma bearing mice (Tumor-Simvastatin), twenty days after implant
[6] = mice without tumor (Control-Simvastatin)

CCC(C)(C)C(=O)O[C@H]1C[C@@H](C)C=C2C=C[C@H](C)[C@H](CC[C@@H]3C[C@@H](O)CC(=O)O3)[C@H]21 [simvastatin, Simvastatin]
cell cycle effect (B16F10 melanoma cells; 24 hours): early cell cycle arrest in G0/G1
hypodiploid cells (B16F10 melanoma cells; after G0/G1 arrest): increase of hypodiploid cells
Femoral Bone Marrow cellularity [1, 3]: equal
Spleen cellularity [1, 3]: equal
Femoral Bone Marrow cellularity [1, 4]: decreased
Spleen cellularity [1, 4]: decreased
Eosinophils (Blood cells evaluation; [5]): 8.5 ± 3.0 %
Hemoglobin (Blood cells evaluation; [5]): 12.4 ± 1.2 g/dL
Total Leukocytes (Blood cells evaluation; [5]): 3.9 ± 0.8 * 103/mm3
Eosinophils (Blood cells evaluation; [6]): 4.7 ± 1.4%
Hemoglobin (Blood cells evaluation; [6]): 12.8 ± 1.9 g/dL
Total Leukocytes (Blood cells evaluation; [6]): 3.3 ± 0.1 * 103/mm3
final tumor sizing compared to the controls (B16F10 melanoma; 5 mg/Kg/day orally for 10 days, started 10 days after inoculation): 25%
treated mice with a survival of 28 days (Kaplan-Meyer) (B16F10 melanoma; 5 mg/Kg/day orally, no survival mice of control group on day 24): Twenty-five percent
total tumoral regression (B16F10 melanoma; melanoma bearing mice, tumor re-started to grow when treatment aborted): not developed
tumor inhibition (B16F10 tumor growth) (B16F10 melanoma; over 10 days period): approximately 75%
toxic effect on B16F10 cells ([2]; 0.8 μM): toxic effect
toxic effect on B16F10 cells ([2]; 1.6 μM): toxic effect
toxicity (cell death) in the first 24 h of incubation ([2]; 1.6 μM, first 24 h): massive death
number of viable cells, trypan blue assay ([2]; cultured melanoma, after 48 hours, vs vehicle-treated): reduces the number of viable cells
